# Source: PubChem BioAssay (NCI)
#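 1) Cells in 96-well plates. 2) Compound, 48 h, 5 concentrations. 3) Linear interpolation between surrounding doses. 4) Unreached endpoint = highest concentration. GI50: concentration for 50% inhibition of growth. TGI: total growth inhibition.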
# Experiments:
# Assay in all cases: growth of human tumour cells (NCI), 48 h
# SF-539 CNS = tested on: SF-539 CNS
# NCI-H226 lung = tested on: NCI-H226 lung
# EKVX NSCLC = tested on: EKVX NSCLC
# BT-549 breast = tested on: BT-549 breast
# T-47D breast = tested on: T-47D breast
# SR leukemia = tested on: SR leukemia
# CCRF-CEM leukemia = tested on: CCRF-CEM leukemia
# M14 melanoma = tested on: M14 melanoma
# UO-31 renal = tested on: UO-31 renal
# SNB-75 CNS = tested on: SNB-75 CNS
SMILES,GI50 (SF-539 CNS) [µM],TGI (SF-539 CNS) [µM],GI50 (NCI-H226 lung) [µM],TGI (NCI-H226 lung) [µM],GI50 (EKVX NSCLC) [µM],TGI (EKVX NSCLC) [µM],GI50 (BT-549 breast) [µM],TGI (BT-549 breast) [µM],GI50 (T-47D breast) [µM],TGI (T-47D breast) [µM],GI50 (SR leukemia) [µM],TGI (SR leukemia) [µM],GI50 (CCRF-CEM leukemia) [µM],TGI (CCRF-CEM leukemia) [µM],GI50 (M14 melanoma) [µM],TGI (M14 melanoma) [µM],GI50 (UO-31 renal) [µM],TGI (UO-31 renal) [µM],GI50 (SNB-75 CNS) [µM],TGI (SNB-75 CNS) [µM]
CC(C)(C)c1ccc(C(=O)Nc2sc3c(c2C(N)=O)CCC(=O)C3)cc1,0.438,1.61,1.53,3.43,1.97,4.82,0.356,1.56,0.261,1.65,0.363,10.1,0.215,3.37,0.413,1.57,0.425,1.46,1.11,2.53
CC(C)(C)CN1CCn2c(nc3c(N)nccc32)S1,18.2,78.9,37.2,> 100,30.9,> 100,19.1,66.1,13,> 100,3.24,47.4,10.2,> 100,5.68,24.9,37.1,> 100,51.5,> 100
COc1ccc2cc(-c3c(-c4ccncc4)nc(-c4ccc(S(C)=O)cc4)n3C)ccc2c1 (stereo unspecified),> 25,> 25,> 9.95,> 25,15.6,> 25,21.1,> 25,7.92,24.6,> 25,> 25,> 21.6,> 25,> 25,> 25,6.42,> 25,> 12.8,> 25
N#CN1CC[C@H](C(=O)Nc2ncc(-c3ccncc3)s2)C1,< 0.016,0.164,0.151,1.5,0.0642,4.4,< 0.0116,0.188,< 0.0177,1.24,< 0.01,4.18,< 0.0156,> 100,0.0379,2.1,< 0.0188,0.758,< 0.0148,0.53
CSC(=S)N/N=C(\C)c1cccc(C)n1,–,7.34,–,10.7,–,> 43.3,–,57.7,–,> 67.5,–,> 65.6,–,0.102,–,1.6,–,13.2,–,13.6
CN(CCCCCl)P(=O)(OCCS(=O)(=O)CC(NC(=O)CCC(N)C(=O)O)C(=O)NC(C(=O)O)c1ccccc1)OCC1OC(n2cc(F)c(=O)[nH]c2=O)CC1O (stereo unspecified),< 0.0105,7.74,0.628,> 100,39.2,> 100,15.3,> 94.7,5.65,> 100,–,> 90.9,< 0.0376,33.1,0.0647,2.85,0.0973,> 81.2,14.5,> 100
COc1ccc(OC)c(Cn2cc3c(c2)-c2oncc2CC3)c1,2.28,7.63,7.67,> 100,4.22,> 100,4.05,> 100,7.1,> 100,1.16,18.2,2.13,> 26,2.15,9.48,4.13,38.8,1.75,6.56
COc1ccc(-c2cc(=O)c3c(OC)c(OC)c(OC)c(OC)c3o2)cc1,–,> 100,–,> 100,–,> 100,–,> 100,–,59.5,–,> 100,–,> 100,–,> 100,–,> 100,–,> 100
O=C(O)COc1c(Cl)cc(Cl)c2cccnc12,–,> 100,–,> 100,–,> 100,–,> 100,–,> 100,–,> 100,–,> 100,–,> 100,–,> 100,–,> 100
CCCCn1c(=O)c2c(nc3n2CCCN3CCc2ccc(OCC(=O)NCCN(CC)CC)cc2)n(CCCC)c1=O,1.87,7,7.13,16.9,5.2,11.7,2.55,8.85,4.3,13.7,1.14,3.02,1.13,3.9,0.961,1.93,1.51,7.86,1.93,10
Cc1cccc(NC(=O)c2sc3nc4c(cc3c2N)CN(Cc2ccccc2)CC4)c1C,0.165,28.2,1.64,> 50,0.45,> 50,0.304,> 50,0.226,> 50,0.0941,> 50,0.195,> 50,0.149,33.2,0.917,> 50,0.112,0.419
Nc1ccccc1SCc1csc(-c2ccc(Cl)cc2)n1,–,53.2,–,62.5,–,86.9,–,72.1,–,23.4,–,29.9,–,67.1,–,41.7,–,46.6,–,> 100
CCn1c2ccccc2c2cc(/C=C(/C#N)C(N)=O)ccc21,–,6.61,0.209,1.13,3.57,> 48.7,0.938,44.7,3.33,> 100,3.54,> 100,13.2,> 100,13.4,> 83.6,11.7,> 29.6,16.1,44.1
O=[N+]([O-])c1cc(S(=O)(=O)Oc2ccccc2)ccc1Cl,3.52,10.4,7.71,21.1,1.99,4.07,5.43,17,2.21,5.38,0.421,5.8,0.594,3.53,2.06,4.28,1.75,3.17,2.54,6.5
O=C1NC(=O)C(c2cccc(Cl)c2)=C1Nc1ccc(O)c(Cl)c1,7.71,> 21.9,12,> 25,10.6,> 25,11.3,> 25,7.98,> 23.1,11.3,> 25,11,> 25,12.1,> 25,7.93,> 25,6.96,> 20.4
CN(CC(N)=O)C(=O)N(CCCl)N=O,–,> 100,–,> 100,–,> 100,–,> 100,–,> 100,–,> 100,–,> 100,–,> 100,–,> 100,–,> 100
BrCc1ccc(CBr)cc1,3.02,11.8,5.37,15.6,10.5,25.7,–,3.8,12.7,48.8,> 100,> 100,2.07,–,11.3,> 47.3,7.58,> 63.2,18.8,> 100
O=C(Nc1cccc(Nc2ncc(Br)c(NCCc3cnc[nH]3)n2)c1)N1CCCC1,0.897,9.17,0.771,4.74,6.07,38.1,2.04,13,4.43,25.5,0.527,28,0.58,29,6.23,21.8,13.4,45.8,1.28,4.96
